Results: publication PMC8464955, “Prediction of Drug–Drug Interaction Potential of Tegoprazan Using Physiologically Based Pharmacokinetic Modeling and Simulation” (Pharmaceutics, 2021)
Where two headings read alike, the source gives them in different places.

What was measured:
[1] = Parallel artificial membrane permeability assay (PAMPA); assay type: in vitro ADME
Excerpt: The advanced dissolution, absorption, and metabolism model was used. The unbound fraction of the drug in enterocytes (fuGut) and the human jejunum effective permeability (Peff,man) were predicted because these values were not routinely measured (Table 1). The value of fuGut was predicted using the values of in vitro parameters, such as the octanol:water partition coefficient, the fraction of intracellular water, and other distribution-related parameters (in-house data). The value of Peff,man was predicted using parallel artificial membrane permeation assay permeability (in-house data).

[2] = molecular target: T1, CYP1A2 (Homo sapiens, UniProt P05177); assay: Intrinsic clearance in human liver microsomes with CYP inhibitors; assay type: in vitro ADME
T1 construct: from tissue; host or cells: human liver microsomes
T1 sequence (P05177 1-516): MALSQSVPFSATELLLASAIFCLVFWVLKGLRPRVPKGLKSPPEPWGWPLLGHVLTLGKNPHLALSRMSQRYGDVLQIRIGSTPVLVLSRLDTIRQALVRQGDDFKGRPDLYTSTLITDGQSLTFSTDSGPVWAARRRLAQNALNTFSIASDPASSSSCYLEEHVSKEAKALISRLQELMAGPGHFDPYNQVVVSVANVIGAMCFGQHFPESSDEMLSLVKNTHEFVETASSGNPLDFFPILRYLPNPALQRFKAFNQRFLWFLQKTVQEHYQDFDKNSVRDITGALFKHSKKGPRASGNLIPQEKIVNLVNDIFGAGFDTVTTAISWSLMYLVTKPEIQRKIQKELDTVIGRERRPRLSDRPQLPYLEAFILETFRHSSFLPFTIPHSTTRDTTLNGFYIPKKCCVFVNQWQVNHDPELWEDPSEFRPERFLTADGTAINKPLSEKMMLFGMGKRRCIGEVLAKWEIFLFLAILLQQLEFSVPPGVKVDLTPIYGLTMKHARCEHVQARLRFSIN
Experimental: (§1) The elimination of the PBPK model consisted of enzyme kinetic and renal clearance (Table 1). Intrinsic clearances (CLint) of tegoprazan by various CYPs were determined by an in vitro study that measured the fraction of CLint inhibited by adding the inhibitors of CYP1A2, CYP2C9, CYP2C19, CYP2D6, and CYP3A to human liver microsomes (in-house data). Based on the in vitro data, an in vitro to in vivo extrapolation (IVIVE) approach was used to estimate the in vivo CLint by each CYP enzyme. Renal clearance as an additional clearance was used from the result of a single-oral-dose study of tegoprazan 100 mg.

[3] = molecular target: T2, CYP2C19 (Homo sapiens, UniProt P33261); assay: as above; assay type: in vitro ADME
T2 construct: from tissue; host or cells: human liver microsomes
T2 sequence (P33261 whole entry): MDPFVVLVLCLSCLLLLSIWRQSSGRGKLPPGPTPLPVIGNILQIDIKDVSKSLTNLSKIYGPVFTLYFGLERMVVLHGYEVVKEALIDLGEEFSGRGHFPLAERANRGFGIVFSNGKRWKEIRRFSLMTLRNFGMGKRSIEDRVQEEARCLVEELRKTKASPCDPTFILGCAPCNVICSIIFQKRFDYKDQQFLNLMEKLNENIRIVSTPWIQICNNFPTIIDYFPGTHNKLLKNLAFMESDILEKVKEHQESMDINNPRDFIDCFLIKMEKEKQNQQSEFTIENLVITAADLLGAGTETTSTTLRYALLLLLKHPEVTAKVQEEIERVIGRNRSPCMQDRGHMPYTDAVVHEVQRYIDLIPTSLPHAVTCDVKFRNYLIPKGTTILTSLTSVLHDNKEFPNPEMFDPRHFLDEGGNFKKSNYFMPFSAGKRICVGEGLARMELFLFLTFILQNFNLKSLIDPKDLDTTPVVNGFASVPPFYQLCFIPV
Experimental: as §1

[4] = molecular target: T3, CYP2C9 (Homo sapiens, UniProt P11712); assay: as above; assay type: in vitro ADME
T3 construct: from tissue; host or cells: human liver microsomes
T3 sequence (P11712 whole entry): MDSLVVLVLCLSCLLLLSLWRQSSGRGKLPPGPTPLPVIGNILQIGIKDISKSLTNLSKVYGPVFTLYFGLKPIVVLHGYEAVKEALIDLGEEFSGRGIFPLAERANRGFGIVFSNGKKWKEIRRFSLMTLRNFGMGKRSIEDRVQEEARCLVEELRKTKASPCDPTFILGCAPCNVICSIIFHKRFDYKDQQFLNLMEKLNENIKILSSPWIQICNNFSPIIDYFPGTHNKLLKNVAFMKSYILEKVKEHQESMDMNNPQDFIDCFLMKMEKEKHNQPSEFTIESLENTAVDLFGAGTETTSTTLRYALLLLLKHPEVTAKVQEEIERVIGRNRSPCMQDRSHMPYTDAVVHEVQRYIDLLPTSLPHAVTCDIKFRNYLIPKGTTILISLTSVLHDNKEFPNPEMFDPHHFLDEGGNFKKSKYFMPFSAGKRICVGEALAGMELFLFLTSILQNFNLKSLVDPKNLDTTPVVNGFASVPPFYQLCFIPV
Experimental: as §1

[5] = molecular target: T4, CYP2D6 (Homo sapiens, UniProt P10635); assay: as above; assay type: in vitro ADME
T4 construct: from tissue; host or cells: human liver microsomes
T4 sequence (P10635 whole entry): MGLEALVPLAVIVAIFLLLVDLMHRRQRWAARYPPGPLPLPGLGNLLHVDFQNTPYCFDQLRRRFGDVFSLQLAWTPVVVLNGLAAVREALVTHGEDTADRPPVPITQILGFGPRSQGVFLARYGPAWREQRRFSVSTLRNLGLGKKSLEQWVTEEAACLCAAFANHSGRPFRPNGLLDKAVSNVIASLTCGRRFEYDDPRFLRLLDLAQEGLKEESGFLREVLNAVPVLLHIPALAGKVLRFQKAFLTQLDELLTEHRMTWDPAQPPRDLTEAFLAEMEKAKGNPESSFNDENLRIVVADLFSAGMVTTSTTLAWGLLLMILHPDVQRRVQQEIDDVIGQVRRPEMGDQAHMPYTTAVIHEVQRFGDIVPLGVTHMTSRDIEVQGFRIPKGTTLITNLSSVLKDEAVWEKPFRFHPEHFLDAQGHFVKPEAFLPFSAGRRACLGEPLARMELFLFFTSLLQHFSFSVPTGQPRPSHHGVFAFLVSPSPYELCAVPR
Experimental: as §1

[6] = Phase 1 clinical PK studies of tegoprazan alone in healthy male adults (observed); assay type: in vivo; conditions: human, urine and plasma, single oral dose 100 mg, read-out: CLR (renal clearance) (converted)
Experimental: (§2) The established PBPK model was verified by applying the predicted values to the clinical PK data from various phase 1 studies conducted with healthy male adults (Supplementary Table S2). Brief information about the clinical studies follows: study 1 (single-dose PK study), a single dose of tegoprazan 25 mg and 50 mg was orally administered; study 2 (food effect study), a single dose of tegoprazan 50 mg was orally administered in both fasted and fed states; study 3 (bioequivalence study of two formulations), a single dose of two different formulations with tegoprazan 100 mg was orally administered; study 4 (multiple-dose PK study), multiple doses of tegoprazan 50 mg and 100 mg were orally administered once daily for 7 days; study 5 (DDI study with clarithromycin), multiple doses of tegoprazan 200 mg were orally administered once daily with or without multiple doses of clarithromycin 500 mg twice daily for 5 days; and study 6 (DDI study with clarithromycin and amoxicillin), multiple doses of tegoprazan 100 mg were orally administered twice daily with or without multiple doses of clarithromycin/amoxicillin 500/1000 mg twice daily for 5 days or 7 days.

[7] = Clinical DDI studies of tegoprazan with clarithromycin or clarithromycin/amoxicillin (observed); assay type: in vivo, human
Experimental: as §2
After refining and verifying the PBPK model of tegoprazan as a single agent, the DDI between tegoprazan and clarithromycin was finally verified using data from DDI clinical studies. To verify the predictability of the DDI estimated by the PBPK model of tegoprazan, the model-predicted PK profiles, parameters, and fold-increase of parameters were compared with the observed PK data measured in clinical studies (i.e., studies 5 and 6). In the case of study 6, the observed data were generated under the condition of triple administration of tegoprazan, clarithromycin, and amoxicillin. […] When simulating the DDI between tegoprazan and clarithromycin, the PBPK model of clarithromycin available in the SimCYP compound file was used.

[8] = cited from earlier work; for AUCτ Obs. / Cmax Obs. / AUCinf Obs.: mean; for Tmax Obs.: median
[9] = cited from earlier work; for AUCτ Obs. / Cmax Obs.: mean; for Tmax Obs.: median
[10] = test system: gastric H^+/K^+-ATPase; design: method as in PMID 31437865; conditions: from 50 mg to 400 mg; cited from earlier work
[11] = tegoprazan 100 mg BID with vs without clarithromycin 500 mg BID + amoxicillin 1000 mg BID
[12] = tegoprazan 200 mg QD with vs without clarithromycin 500 mg BID
[13] = multiple oral doses 50 mg once daily for 7 days, ref NCT03009760
[14] = multiple oral doses 100 mg once daily for 7 days, ref NCT03009760
[15] = single oral dose 25 mg, ref NCT03530228
[16] = single oral dose 50 mg, NCT03530228
[17] = tegoprazan 100 mg BID + clarithromycin 500 mg BID + amoxicillin 1000 mg BID, 7 days
[18] = tegoprazan 100 mg BID alone for 4 days, once on day 5
[19] = tegoprazan 200 mg QD + clarithromycin 500 mg BID for 5 days, ref NCT02052336
[20] = tegoprazan 200 mg QD alone for 5 days, ref NCT02052336

Papp [1]: 684 nm/s | CYP1A2 CLint [2]: 2.5 μL/min/mg of protein | CYP2C19 CLint [3]: 3.6 μL/min/mg of protein | CYP2C9 CLint [4]: 2.6 μL/min/mg of protein | CYP2D6 CLint [5]: 2 μL/min/mg of protein | CL renal [6]: 21.8 mL/min | Fold Increase Obs. AUCR [7, 11]: 2.69 | Fold Increase Obs. CmaxR [7, 11]: 2.24 | Fold Increase Obs. AUCR [7, 12]: 2.57 | Fold Increase Obs. CmaxR [7, 12]: 1.66
SMILES: Cc1nc2cc(C(=O)N(C)C)cc(O[C@H]3CCOc4cc(F)cc(F)c43)c2[nH]1 [tegoprazan]
AUCτ Obs. [8, 13]: 2.9549 µg·h/mL | Cmax Obs. [8, 13]: 0.8428 µg/mL | Tmax Obs. [8, 13]: 1.00 h | AUCτ Obs. [8, 14]: 4.7684 µg·h/mL | Cmax Obs. [8, 14]: 1.1497 µg/mL | Tmax Obs. [8, 14]: 1.25 h | AUCinf Obs. [8, 15]: 1.34 µg·h/mL | Cmax Obs. [8, 15]: 0.3356 µg/mL | Tmax Obs. [8, 15]: 0.75 h | AUCinf Obs. [8, 16]: 2.903 µg·h/mL | Cmax Obs. [8, 16]: 0.7591 µg/mL | Tmax Obs. [8, 16]: 1.00 h | AUCinf Obs. ([8]; single oral dose 100 mg): 5.9981 µg·h/mL | Cmax Obs. ([8]; single oral dose 100 mg): 1.4345 µg/mL | Tmax Obs. ([8]; single oral dose 100 mg): 1.00 h | DDI between tegoprazan and amoxicillin [9]: negligible | apparent clearance, DDI study result ([9]; co-administration of clarithromycin): 6.6 L/h | AUCτ Obs. [9, 17]: 16,045.0 μg∙h/L | Cmax Obs. [9, 17]: 2.2856 µg/mL | Tmax Obs. [9, 17]: 2.50 h | AUCτ Obs. [9, 18]: 5955.9 µg·h/L | Cmax Obs. [9, 18]: 1.0184 µg/mL | Tmax Obs. [9, 18]: 1.30 h | AUCτ Obs. [9, 19]: 27,796.4 μg∙h/L | Cmax Obs. [9, 19]: 3.096 µg/mL | Tmax Obs. [9, 19]: 1.50 h | AUCτ Obs. [9, 20]: 10,817.6 μg∙h/L | Cmax Obs. [9, 20]: 1.8686 µg/mL | Tmax Obs. [9, 20]: 1.00 h | apparent clearance, DDI study result ([9]; tegoprazan alone): 17.7 L/h | magnitude of acid suppression [10]: increases in a dose-dependent manner
